Results reported in the supplement of paper PMC10331698.
± gives the standard deviation of the averaged measurements.

Key:
Experiment in all cases: level (log10 ratio to DMSO vehicle control); higher = higher biomarker level / cell amount than vehicle control
[1] = compound: O=C(O)C(F)(F)C(F)(F)C(F)(F)OC(F)(F)F [Perfluoro(4-methoxybutanoic) acid] (in DMSO)
Procedure: (§1)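 BioMAP Diversity Plus panel of 12 human primary cell co-culture systems (3C, 4H, LPS, SAg, BT, BF4T, BE3C, CASM3C, HDF3CGF, KF3CT, MyoF, Mphg). Compounds were added 1 h before stimulation and left for 24 h (MyoF 48 h; BT 72 h for soluble read-outs or 6 d for IgG). Biomarkers were read by ELISA, cytotoxicity by SRB, PBMC viability and proliferation by Alamar Blue. Each well value was divided by the mean of 8 DMSO control wells on the same plate and log10 transformed; duplicate blinded samples were tested at 4 concentrations.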

[2] = compound: C[C@@H]1C[C@H]2[C@@H]3CCC4=CC(=O)C=C[C@]4(C)[C@@]3(F)[C@@H](O)C[C@]2(C)[C@@]1(O)C(=O)COP(=O)(O)O [Dexamethasone sodium phosphate] (in DMSO)
Procedure: as §1

[3] = compound: OCC(F)(F)C(F)(F)C(F)(F)C(F)F [1H,1H,5H-Perfluoropentanol] (in DMSO)
Procedure: as §1

[4] = compound: O=S(=O)(O)C(F)(F)C(F)(F)C(F)(F)C(F)(F)C(F)(F)C(F)(F)C(F)(F)F [Perfluoroheptanesulfonic acid] (in DMSO)
Procedure: as §1

[5] = compound: OCC(F)(F)C(F)(F)C(F)(F)C(F)(F)C(F)(F)C(F)(F)CO [1H,1H,8H,8H-Perfluorooctane-1,8-diol] (in DMSO)
Procedure: as §1

[6] = compound: C=C(C)C(=O)OCCC(F)(F)C(F)(F)C(F)(F)C(F)(F)C(F)(F)C(F)(F)C(F)(F)C(F)(F)F [8:2 Fluorotelomer methacrylate] (in DMSO)
Procedure: as §1

Row | Test System | level (log10) ([1]; 6700 nM) | level (log10) ([1]; 20000 nM) | level (log10) ([1]; 60000 nM) | level (log10) ([2]; 1500 nM) | level (log10) ([2]; 4400 nM) | level (log10) ([2]; 13000 nM) | level (log10) ([2]; 40000 nM) | level (log10) ([3]; 6700 nM) | level (log10) ([3]; 20000 nM) | level (log10) ([3]; 60000 nM) | level (log10) ([4]; 1500 nM) | level (log10) ([4]; 4400 nM) | level (log10) ([4]; 13000 nM) | level (log10) ([4]; 40000 nM) | level (log10) ([5]; 6700 nM) | level (log10) ([5]; 20000 nM) | level (log10) ([5]; 60000 nM) | level (log10) ([6]; 6700 nM) | level (log10) ([6]; 20000 nM)
1 | CASM3C:CD106/VCAM-1 | -0.0045 ± 0.057 | -0.0015 ± 0.042 | -0.008 ± 0.035 | 0.117 ± 0.06 | 0.11 ± 0.049 | 0.0875 ± 0.016 | 0.076 ± 0.054 | 0.0335 ± 0.023 | 0.027 ± 0.065 | 0.0395 ± 0.013 | 0.0085 ± 0.057 | 0.0125 ± 0.0035 | 0.0055 ± 0.05 | -0.0355 ± 0.0035 | 0.0055 ± 0.022 | 0.02 ± 0.0028 | 0.05 ± 0.0085 | -0.006 ± 0.0014 | -0.0145 ± 0.036
2 | CASM3C:CD141/Thrombomodulin | 0.001 ± 0.035 | 0.007 ± 0.035 | -0.011 ± 0.044 | 0.107 ± 0.11 | 0.0895 ± 0.067 | 0.073 ± 0.041 | 0.123 ± 0.011 | 0.046 | 0.018 ± 0.017 | 0.032 ± 0.023 | 0.019 ± 0.037 | -0.019 ± 0.028 | -0.0185 ± 0.022 | 0.038 ± 0.078 | -0.018 ± 0.0071 | -0.02 ± 0.014 | -0.0005 ± 0.026 | -0.0195 ± 0.042 | 0.041 ± 0.082
3 | CASM3C:CD142/Tissue Factor | 0.0005 ± 0.018 | -0.0175 ± 0.011 | -0.051 ± 0.018 | 0.101 ± 0.034 | 0.099 ± 0.042 | 0.0875 ± 0.023 | 0.079 ± 0.0028 | -0.0605 ± 0.044 | -0.0695 ± 0.035 | -0.0195 ± 0.094 | -0.0305 ± 0.035 | -0.0125 ± 0.019 | -0.026 ± 0.024 | -0.04 ± 0.068 | 0 ± 0.014 | 0 ± 0.023 | 0.012 ± 0.041 | -0.023 ± 0.018 | -0.0195 ± 0.057
4 | CASM3C:CXCL8/IL-8 | 0.002 ± 0.0099 | -0.0065 ± 0.013 | 0.0165 ± 0.011 | -0.075 ± 0.044 | -0.0815 ± 0.023 | -0.092 ± 0.0057 | -0.084 ± 0.0042 | -0.0025 ± 0.021 | 0.0065 ± 0.047 | 0.015 ± 0.059 | 0.0015 ± 0.013 | -0.005 ± 0.0099 | -0.0105 ± 0.005 | -0.0005 ± 0.019 | -0.007 ± 0.027 | -0.0135 ± 0.022 | 0.007 ± 0.011 | -0.011 ± 0.0057 | -0.0055 ± 0.028
5 | CASM3C:CXCL9/MIG | -0.0025 ± 0.016 | -0.0105 ± 0.0078 | 0.015 ± 0.0028 | 0.0525 ± 0.037 | 0.038 ± 0.0085 | 0.0335 ± 0.0021 | 0.0595 ± 0.025 | 0.021 ± 0.03 | 0.0095 ± 0.037 | 0.0005 ± 0.093 | 0.012 ± 0.035 | -0.008 ± 0.0099 | 0.0015 ± 0.005 | 0.037 ± 0.05 | 0.0035 ± 0.012 | 0.016 ± 0.0028 | 0.0235 ± 0.021 | -0.017 ± 0.011 | 0.018 ± 0.042
6 | CASM3C:HLA-DR | -0.016 ± 0.014 | -0.006 ± 0.023 | -0.0095 ± 0.00071 | 0.0495 ± 0.06 | 0.0425 ± 0.022 | 0.02 ± 0.013 | 0.0355 ± 0.023 | 0.016 ± 0.0028 | -0.014 ± 0.064 | 0.035 ± 0.025 | -0.011 ± 0.0028 | 0.009 ± 0.0085 | -0.0255 ± 0.028 | -0.009 ± 0.031 | -0.0005 ± 0.018 | -0.026 ± 0.016 | -0.014 ± 0.014 | -0.006 ± 0.027 | -0.0195 ± 0.046
7 | CASM3C:IL-6 | -0.0215 ± 0.015 | -0.0205 ± 0.016 | -0.001 ± 0.031 | -0.166 ± 0.096 | -0.232 ± 0.023 | -0.246 ± 0.015 | -0.189 ± 0.092 | 0.001 ± 0.041 | -0.0005 ± 0.021 | 0.0255 ± 0.036 | 0.021 ± 0.05 | -0.029 ± 0.0014 | -0.0305 ± 0.026 | 0.011 ± 0.088 | -0.014 ± 0.0014 | -0.02 ± 0.0099 | -0.0005 ± 0.04 | -0.0315 ± 0.022 | 0.0105 ± 0.084
